PMC3598725, “Transporter engineering for improved tolerance against alkane biofuels in Saccharomyces cerevisiae” (Biotechnology for Biofuels, 2013)

What was measured:
[1] = molecular target: T1, ABC3 (Yarrowia lipolytica, UniProt Q6CFY4); test: intracellular alkane level by GC, S. cerevisiae expressing transporter vs empty plasmid; assay type: cell-based; conditions: 48 h, whole-cell efflux, indirect
T1 construct: gene YALI0_B02544g; full-length, C-terminal 6xHis tag, pYES2 (GAL1) in S. cerevisiae BY4741; 167 kDa on western blot; plasma membrane
T1 sequence (Q6CFY4 1-1485): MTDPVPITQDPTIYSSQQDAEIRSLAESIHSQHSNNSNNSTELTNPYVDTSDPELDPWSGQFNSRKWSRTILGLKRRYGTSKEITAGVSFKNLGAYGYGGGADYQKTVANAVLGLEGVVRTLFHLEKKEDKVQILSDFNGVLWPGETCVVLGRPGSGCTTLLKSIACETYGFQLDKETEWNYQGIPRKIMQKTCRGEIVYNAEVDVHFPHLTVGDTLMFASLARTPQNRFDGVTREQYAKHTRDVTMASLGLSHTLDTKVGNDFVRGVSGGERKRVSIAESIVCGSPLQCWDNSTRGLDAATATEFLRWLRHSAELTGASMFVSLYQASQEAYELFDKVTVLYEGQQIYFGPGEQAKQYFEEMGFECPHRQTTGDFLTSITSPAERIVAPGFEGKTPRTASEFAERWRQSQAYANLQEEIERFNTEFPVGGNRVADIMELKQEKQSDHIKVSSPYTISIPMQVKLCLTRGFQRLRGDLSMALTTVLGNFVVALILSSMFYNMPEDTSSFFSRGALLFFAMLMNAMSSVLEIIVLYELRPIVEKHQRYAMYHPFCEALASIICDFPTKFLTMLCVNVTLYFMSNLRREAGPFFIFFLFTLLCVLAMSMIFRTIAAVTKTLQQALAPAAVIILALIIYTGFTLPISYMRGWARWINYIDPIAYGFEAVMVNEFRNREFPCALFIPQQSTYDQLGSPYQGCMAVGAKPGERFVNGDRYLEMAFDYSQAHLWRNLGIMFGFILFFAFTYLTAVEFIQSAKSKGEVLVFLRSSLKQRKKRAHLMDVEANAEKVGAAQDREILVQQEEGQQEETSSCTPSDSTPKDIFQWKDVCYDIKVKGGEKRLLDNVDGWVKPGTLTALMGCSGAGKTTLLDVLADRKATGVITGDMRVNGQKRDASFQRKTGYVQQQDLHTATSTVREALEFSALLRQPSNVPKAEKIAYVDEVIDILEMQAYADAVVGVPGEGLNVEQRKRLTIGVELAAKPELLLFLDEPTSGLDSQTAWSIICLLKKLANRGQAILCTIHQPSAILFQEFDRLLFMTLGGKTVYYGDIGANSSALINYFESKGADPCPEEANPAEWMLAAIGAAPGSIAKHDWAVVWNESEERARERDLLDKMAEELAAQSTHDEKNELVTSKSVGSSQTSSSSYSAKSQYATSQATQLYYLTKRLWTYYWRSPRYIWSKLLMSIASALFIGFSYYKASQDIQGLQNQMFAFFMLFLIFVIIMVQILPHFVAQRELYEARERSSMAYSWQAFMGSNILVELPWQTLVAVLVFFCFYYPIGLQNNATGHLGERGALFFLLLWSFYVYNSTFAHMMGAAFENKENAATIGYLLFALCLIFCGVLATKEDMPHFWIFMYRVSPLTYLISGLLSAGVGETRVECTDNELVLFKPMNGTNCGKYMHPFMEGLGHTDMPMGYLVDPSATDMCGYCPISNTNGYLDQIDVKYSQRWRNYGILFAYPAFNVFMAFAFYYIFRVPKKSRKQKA

[2] = molecular target: T2, ABC2 (Yarrowia lipolytica, UniProt Q6CBB8); test: as above; assay type: cell-based; conditions: 48 h, whole-cell efflux, indirect
T2 construct: gene YALI0_C20265g; full-length, C-terminal 6xHis tag, pYES2 (GAL1) in S. cerevisiae BY4741; 165 kDa on western blot; plasma membrane
T2 sequence (Q6CBB8 1-1469): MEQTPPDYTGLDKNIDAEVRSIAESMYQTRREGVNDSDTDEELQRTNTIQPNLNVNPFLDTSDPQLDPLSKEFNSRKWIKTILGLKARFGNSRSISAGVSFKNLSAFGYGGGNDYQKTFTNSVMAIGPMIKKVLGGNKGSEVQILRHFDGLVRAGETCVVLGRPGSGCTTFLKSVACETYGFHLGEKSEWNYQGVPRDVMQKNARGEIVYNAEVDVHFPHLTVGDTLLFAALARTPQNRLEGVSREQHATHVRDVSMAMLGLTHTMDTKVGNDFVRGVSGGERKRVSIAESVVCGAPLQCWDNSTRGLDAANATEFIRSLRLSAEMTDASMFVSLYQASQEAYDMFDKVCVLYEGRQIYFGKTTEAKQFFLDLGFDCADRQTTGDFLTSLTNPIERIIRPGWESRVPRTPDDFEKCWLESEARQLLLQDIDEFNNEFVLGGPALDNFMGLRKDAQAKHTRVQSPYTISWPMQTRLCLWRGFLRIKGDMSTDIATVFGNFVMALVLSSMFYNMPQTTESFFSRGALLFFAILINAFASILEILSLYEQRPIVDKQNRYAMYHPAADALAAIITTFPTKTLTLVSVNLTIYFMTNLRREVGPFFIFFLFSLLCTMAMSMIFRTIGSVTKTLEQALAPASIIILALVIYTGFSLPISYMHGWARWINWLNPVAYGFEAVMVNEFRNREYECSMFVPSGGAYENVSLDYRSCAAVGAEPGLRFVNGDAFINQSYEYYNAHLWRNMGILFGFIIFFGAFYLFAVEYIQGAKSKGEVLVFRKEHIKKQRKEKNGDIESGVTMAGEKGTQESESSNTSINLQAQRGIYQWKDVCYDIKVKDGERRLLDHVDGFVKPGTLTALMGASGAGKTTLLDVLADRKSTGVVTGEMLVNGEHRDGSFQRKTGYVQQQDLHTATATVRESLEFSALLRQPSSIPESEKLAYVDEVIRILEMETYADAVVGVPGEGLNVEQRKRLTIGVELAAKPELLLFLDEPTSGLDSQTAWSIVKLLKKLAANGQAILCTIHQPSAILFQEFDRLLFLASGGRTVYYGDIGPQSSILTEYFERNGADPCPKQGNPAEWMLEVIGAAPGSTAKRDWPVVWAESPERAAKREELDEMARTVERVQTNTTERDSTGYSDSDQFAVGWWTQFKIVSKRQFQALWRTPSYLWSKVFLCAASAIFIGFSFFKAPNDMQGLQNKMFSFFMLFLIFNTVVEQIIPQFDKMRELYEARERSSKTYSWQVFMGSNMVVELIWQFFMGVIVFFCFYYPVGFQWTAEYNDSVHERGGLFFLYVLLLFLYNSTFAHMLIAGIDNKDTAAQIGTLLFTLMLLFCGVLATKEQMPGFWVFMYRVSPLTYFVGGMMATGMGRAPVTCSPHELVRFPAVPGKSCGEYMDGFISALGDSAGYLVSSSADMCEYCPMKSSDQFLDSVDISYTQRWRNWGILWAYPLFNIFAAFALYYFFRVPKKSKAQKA

CCCCCCCCCC [decane]
fold lower intracellular level ([1]; 0.5% (vol/vol) decane): ~ 5 fold | fold lower intracellular level ([2]; 0.5% (vol/vol) decane): ~ 5 fold

CCCCCCCCCCC [undecane]
fold lower intracellular level ([1]; 20% (vol/vol) undecane): ~ 30 fold | fold lower intracellular level ([2]; 20% (vol/vol) undecane): ~ 30 fold
